Laboratory results reported in ChEMBL document CHEMBL1137802, “Specific antioxidant activity of caffeoyl derivatives and other natural phenolic compounds: LDL protection against oxidation and decrease in the proinflammatory lysophosphatidylcholine production” (J Nat Prod, 2001).

Legend:
Type in all cases: functional, cell-free
[1] = Antioxidant activity against Cu2+-induced lipid peroxidation in human plasma LDL assessed as conjugated diene formation at 5 umol/L preincubated for 1 hr before Cu2+ challenge measured after 120 mins
[2] = Antioxidant activity against Cu2+-induced lipid peroxidation in human plasma LDL assessed as lysophosphatidylcholine formation at 20 umol/L preincubated for 1 hr before Cu2+ challenge measured after 270 mins
[3] = Antioxidant activity against Cu2+-induced lipid peroxidation in human plasma LDL assessed as maximal compound concentration at 5 umol/L preincubated for 1 hr before Cu2+ challenge measured after 180 mins relative to compound present at 0 min
[4] = Antioxidant activity against Cu2+-induced lipid peroxidation in human plasma LDL assessed as conjugated diene formation at 10 umol/L preincubated for 1 hr before Cu2+ challenge measured after 360 mins
[5] = Antioxidant activity against Cu2+-induced lipid peroxidation in human plasma LDL assessed as conjugated diene formation at 20 umol/L preincubated for 1 hr before Cu2+ challenge measured after 120 mins
[6] = Antioxidant activity against Cu2+-induced lipid peroxidation in human plasma LDL assessed as lysophosphatidylcholine formation at 5 umol/L preincubated for 1 hr before Cu2+ challenge measured after 90 mins
[7] = Antioxidant activity against Cu2+-induced lipid peroxidation in human plasma LDL assessed as vitamin E consumption at 5 umol/L preincubated for 1 hr before Cu2+ challenge measured after 270 mins
[8] = Antioxidant activity against Cu2+-induced lipid peroxidation in human plasma LDL assessed as lysophosphatidylcholine formation at 10 umol/L preincubated for 1 hr before Cu2+ challenge measured after 360 mins
[9] = Antioxidant activity against Cu2+-induced lipid peroxidation in human plasma LDL assessed as conjugated diene formation at 5 umol/L preincubated for 1 hr before Cu2+ challenge measured after 210 mins
[10] = Antioxidant activity against Cu2+-induced lipid peroxidation in human plasma LDL assessed as conjugated diene formation at 10 umol/L preincubated for 1 hr before Cu2+ challenge measured after 90 mins
[11] = Antioxidant activity against Cu2+-induced lipid peroxidation in human plasma LDL assessed as conjugated diene formation at 20 umol/L preincubated for 1 hr before Cu2+ challenge measured after 150 mins
[12] = Antioxidant activity against Cu2+-induced lipid peroxidation in human plasma LDL assessed as maximal compound concentration at 10 umol/L preincubated for 1 hr before Cu2+ challenge measured after 180 mins relative to compound present at 0 min
[13] = Antioxidant activity against Cu2+-induced lipid peroxidation in human plasma LDL assessed as vitamin E consumption at 5 umol/L preincubated for 1 hr before Cu2+ challenge measured after 90 mins
[14] = Antioxidant activity against Cu2+-induced lipid peroxidation in human plasma LDL assessed as maximal compound concentration at 10 umol/L preincubated for 1 hr before Cu2+ challenge measured after 270 mins relative to compound present at 0 min
[15] = Antioxidant activity against Cu2+-induced lipid peroxidation in human plasma LDL preincubated for 1 hr before Cu2+ challenge
[16] = Antioxidant activity against Cu2+-induced lipid peroxidation in human plasma LDL assessed as maximal compound concentration at 20 umol/L preincubated for 1 hr before Cu2+ challenge measured after 120 mins relative to compound present at 0 min
[17] = Antioxidant activity against Cu2+-induced lipid peroxidation in human plasma LDL assessed as vitamin E consumption at 10 umol/L preincubated for 1 hr before Cu2+ challenge measured after 150 mins
[18] = Antioxidant activity against Cu2+-induced lipid peroxidation in human plasma LDL assessed as maximal compound concentration at 10 umol/L preincubated for 1 hr before Cu2+ challenge measured after 60 mins relative to compound present at 0 min
[19] = Antioxidant activity against Cu2+-induced lipid peroxidation in human plasma LDL assessed as conjugated diene formation at 10 umol/L preincubated for 1 hr before Cu2+ challenge measured after 210 mins
[20] = Antioxidant activity against Cu2+-induced lipid peroxidation in human plasma LDL assessed as vitamin E consumption at 10 umol/L preincubated for 1 hr before Cu2+ challenge measured after 180 mins
[21] = Antioxidant activity against Cu2+-induced lipid peroxidation in human plasma LDL assessed as conjugated diene formation at 10 umol/L preincubated for 1 hr before Cu2+ challenge measured after 120 mins
[22] = Antioxidant activity against Cu2+-induced lipid peroxidation in human plasma LDL assessed as lysophosphatidylcholine formation at 10 umol/L preincubated for 1 hr before Cu2+ challenge measured after 90 mins
[23] = Antioxidant activity against Cu2+-induced lipid peroxidation in human plasma LDL assessed as maximal compound concentration at 10 umol/L preincubated for 1 hr before Cu2+ challenge measured after 120 mins relative to compound present at 0 min
[24] = Antioxidant activity against Cu2+-induced lipid peroxidation in human plasma LDL assessed as conjugated diene formation at 5 umol/L preincubated for 1 hr before Cu2+ challenge measured after 90 mins
[25] = Antioxidant activity against Cu2+-induced lipid peroxidation in human plasma LDL assessed as maximal compound concentration at 20 umol/L preincubated for 1 hr before Cu2+ challenge measured after 45 mins relative to compound present at 0 min
[26] = Antioxidant activity against Cu2+-induced lipid peroxidation in human plasma LDL assessed as lysophosphatidylcholine formation at 5 umol/L preincubated for 1 hr before Cu2+ challenge measured after 120 mins
[27] = Antioxidant activity against Cu2+-induced lipid peroxidation in human plasma LDL assessed as vitamin E consumption at 10 umol/L preincubated for 1 hr before Cu2+ challenge measured after 15 mins
[28] = Antioxidant activity against Cu2+-induced lipid peroxidation in human plasma LDL assessed as maximal compound concentration at 5 umol/L preincubated for 1 hr before Cu2+ challenge measured after 270 mins relative to compound present at 0 min
[29] = Antioxidant activity against Cu2+-induced lipid peroxidation in human plasma LDL assessed as vitamin E consumption at 20 umol/L preincubated for 1 hr before Cu2+ challenge measured after 90 mins
[30] = Antioxidant activity against Cu2+-induced lipid peroxidation in human plasma LDL assessed as maximal compound concentration at 5 umol/L preincubated for 1 hr before Cu2+ challenge measured after 15 mins relative to compound present at 0 min
[31] = Antioxidant activity against Cu2+-induced lipid peroxidation in human plasma LDL assessed as lysophosphatidylcholine formation at 20 umol/L preincubated for 1 hr before Cu2+ challenge measured after 360 mins
[32] = Antioxidant activity against Cu2+-induced lipid peroxidation in human plasma LDL assessed as lysophosphatidylcholine formation at 20 umol/L preincubated for 1 hr before Cu2+ challenge measured after 60 mins
[33] = Antioxidant activity against Cu2+-induced lipid peroxidation in human plasma LDL assessed as vitamin E consumption at 20 umol/L preincubated for 1 hr before Cu2+ challenge measured after 270 mins
[34] = Antioxidant activity against Cu2+-induced lipid peroxidation in human plasma LDL assessed as lysophosphatidylcholine formation at 10 umol/L preincubated for 1 hr before Cu2+ challenge measured after 120 mins

With `CC(C)(Sc1cc(C(C)(C)C)c(O)c(C(C)(C)C)c1)Sc1cc(C(C)(C)C)c(O)c(C(C)(C)C)c1` the Activity [1] was 78.6%, the Activity [2] was 1.5% and the Activity [3] was 45.3%. For the same compound, the Activity [4] was 100%, the Activity [5] was 0.2% and the Activity [6] was 4.1%. For the same compound, the Activity [7] was 0%, the Activity [8] was 19.2% and the Activity [9] was 80.8%. It also gave an Activity [10] of 4%, an Activity [11] of 1.1% and an Activity [12] of 31.2%. It also gave an Activity [13] of 0%, an Activity [14] of 15.8% and an Activity [15] of 5.8 µM/L. For the same compound, the Activity [16] was 43.2%, the Activity [17] was 0% and the Activity [18] was 34.1%. For the same compound, the Activity [19] was 76.3%, the Activity [20] was 0% and the Activity [21] was 39.4%. It also gave an Activity [22] of 0%, an Activity [23] of 37.2% and an Activity [24] of 37.9%. For the same compound, the Activity [25] was 87.7%, the Activity [26] was 10.6% and the Activity [27] was 51.8%. For the same compound, the Activity [28] was 22.5%, the Activity [29] was 0% and the Activity [30] was 96%. It also gave an Activity [31] of 1.9%, an Activity [32] of 1.2% and an Activity [33] of 0%. The Activity [34] was 1.3%.
